For test [1], the target named is T1, Human Polymorphonuclear Leukocyte Elastase (Homo sapiens, UniProt P08246).
T1 sequence (P08246 30-247 limits assumed): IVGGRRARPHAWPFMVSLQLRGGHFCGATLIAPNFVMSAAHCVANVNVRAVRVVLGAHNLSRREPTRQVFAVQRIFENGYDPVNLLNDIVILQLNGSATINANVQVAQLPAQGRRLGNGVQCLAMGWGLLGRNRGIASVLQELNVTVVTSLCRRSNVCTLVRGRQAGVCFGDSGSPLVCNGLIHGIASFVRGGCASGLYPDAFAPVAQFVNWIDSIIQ
The experiment in a line: biochemical. How it is done: Protocol--Enzyme Assays for the Inhibition of Human Polymorphonuclear Leukocyte Elastase Via Hydrolysis of N-t-Boc-alanyl-alanyl-prolylalanine-p-nitroanilide Reagents:
0.05M TES (N-tris[hydroxymethyl]methyl-2-amino-ethanesulfonic acid) Buffer, pH 7.5.
0.2 mMN-t-Boc-alanyl -alanyl -prolyl-alanine-p-nitroanilide (Boc-AAPAN).
To prepare substrate, the solid (m.w. 550) was first dissolved in 10.0 ml DMSO. Buffer at pH 7.5 was then added to a final volume of 100 ml.
Crude extract of human polymorphonuclear leukocytes (PMN) containing elastase activity.
Inhibitors (cephalosporin sulfone esters) to be tested dissolved in DMSO just before use.
To 1.0 ml of 0.2 mM Boc-AAPAN in a cuvette, 0.01-0.1 ml of DMSO with or without inhibitor was added. After mixing, a measurement was taken at 410 mμ to detect any spontaneous hydrolysis due to presence of test compound. 0.05 Milliliters of PMN extract was then added and the ΔOD/min at 410 mμ was measured and recorded. Beckman model 35 spectrophotometer was used.
The elastase activity in the crude PMN extract may vary from one preparation to another. A control of each new batch is run, and the volume added in the assay procedure is adjusted according to activity.

For another test, the system named is PG synthesis. Particulars: background statement; cited from earlier work.
The test system of test [2] is elastase both from the pancreas and the PMN. The note with it: background statement; cited from earlier work.
Setting [3] is: Table II, 50% inhibition of the enzyme activity 2 minutes after zero time, crude PMN extract, pH 7.5, 0.2 mM Boc-AAPAN, read-out: ED50 (the source's name) (converted).

Where two headings read alike, the source gives them in different places.

Take `CO[C@H]1C(=O)N2C(C(=O)OC(C)(C)C)=C(C(=O)O)CS(=O)(=O)C12` (stereo partly drawn) [R1=OCH3, M=COOH, B=OtBu, Q=H, t-Butyl 3-hydroxycarbonyl-7α-methoxy-8-oxo-5-thia-1-azabicyclo[4.2.0]oct-2-ene-2-carboxylate-5,5 dioxide]: in test [1] (setting [3]), the IC50 was 28.8 nM. For `COC(=O)C1=C(Cl)CS(=O)(=O)C2[C@@H](OC)C(=O)N12` (stereo partly drawn) [R1=OCH3, M=Cl, B=OCH3, Q=H, Methyl-3-chloro-7α-methoxy-8-oxo-5-thia-1-azabicyclo[4.2.0]oct-2-ene-2-carboxylate-5,5-dioxide], the IC50 in test [1] (setting [3]) is 676 nM.

Turning to `COC1C(=O)N2C(C(=O)OC(C)(C)C)=C(COC(=O)CN(C)C(=O)OC(C)(C)C)CS(=O)(=O)C12` (centres unmarked) [R1=OCH3, M=drawing 38, B=OtBu, Q=H], in test [1] (setting [3]), the IC50 was 198 nM. As to `COC1C(=O)N2C(C(=O)OC(C)(C)C)=C(CSc3nc[nH]n3)CS(=O)(=O)C12` (centres unmarked) [R1=OCH3, M=drawing 39, B=OtBu, Q=H], in test [1] (setting [3]), the IC50 is 2160 nM.

Consider `CCOC(=S)SCC1=C(C(=O)OC(C)(C)C)N2C(=O)C(OC)C2S(=O)(=O)C1` (centres unmarked) [R1=OCH3, M=drawing 40, B=OtBu, Q=H], for which, in test [1] (setting [3]), the IC50 is 1600 nM. With `COC1C(=O)N2C(C(=O)OC(C)(C)C)=C(CSc3nccn3C)CS(=O)(=O)C12` (centres unmarked) [R1=OCH3, M=drawing 41, B=OtBu, Q=H], the IC50 in test [1] was 2330 nM.

In turn, `COC1C(=O)N2C(C(=O)OC(C)(C)C)=C(CSc3nnc(C)s3)CS(=O)(=O)C12` (centres unmarked) [R1=OCH3, M=drawing 42, B=OtBu, Q=H] showed an IC50 in test [1] of 2230 nM.

Regarding `COC1C(=O)N2C(C(=O)OC(C)(C)C)=C(CSc3nc4ccccc4s3)CS(=O)(=O)C12` (centres unmarked) [R1=OCH3, M=drawing 43, B=OtBu, Q=H], in test [1] (setting [3]), the IC50 is 6220 nM. For the compound `COC1C(=O)N2C(C(=O)OC(C)(C)C)=C(CSc3cn[nH]n3)CS(=O)(=O)C12` (centres unmarked) [R1=OCH3, M=drawing 44, B=OtBu, Q=H], in test [1] (setting [3]), the IC50 is 1440 nM. Same read-out and setting: the result for `COC1C(=O)N2C(C(=O)OC(C)(C)C)=C(CSc3nnnn3C)CS(=O)(=O)C12` (centres unmarked) [R1=OCH3, M=drawing 45, B=OtBu, Q=H] reads 1390 nM; that for `CC(=O)OCC1=C(C(=O)OCc2ccccc2)N2C(=O)C(OC(C)=O)C2S(=O)(=O)C1` (centres unmarked) [R1=OCOCH3, M=CH2OCOCH3, B=OCH2.phi., Q=H], 914 nM.

For `CC(=O)OCC1=C(C(=O)OC(C)(C)C)N2C(=O)C(OC=O)C2S(=O)(=O)C1` (centres unmarked) [R1=drawing 36, M=CH2OCOCH3, B=OtBu, Q=H], the IC50 in test [1] (setting [3]) was 385 nM.

Regarding `COC(=O)C1=C(COC(C)=O)CS(=O)(=O)C2C(OC=O)C(=O)N12` (centres unmarked) [R1=drawing 37, M=CH2OCOCH3, B=OCH3, Q=H], the IC50 in test [1] (setting [3]) was 288 nM. For `COc1ccc2c(c1)c(CC(=O)O)c(C)n2C(=O)c1ccc(Cl)cc1` [indomethacin], the “inhibition of PG synthesis” value with PG synthesis was “inhibited”.

As for `CCCCC1C(=O)N(c2ccccc2)N(c2ccccc2)C1=O` [phenylbutazone], the “inhibition of PG synthesis” value with PG synthesis is reported as “inhibited”. For the compound `CO[C@H]1C(=O)N2C(C(=O)OC(C)(C)C)=C(COC(C)=O)C(CSc3ccccc3)S(=O)(=O)[C@H]12` (stereo partly drawn) [t-Butyl 3-acetyloxymethyl-7α-methoxy-4-phenylthiomethyl-8-oxo-5-thia-1-azabicyclo[4.2.0]oct-2-ene-2-carboxylate-5,5-dioxide], the IC50 in test [1] (setting [3]) is 60.3 nM. On to “α1 -Antitrypsin: a glycoprotein contained in human serum that has a wide inhibitory spectrum”, for which, in test [2], the inhibitory spectrum result was “wide inhibitory spectrum covering, among other enzymes, elastase both from the pancreas and the PMN”.

The record behind these values is patent US5364848A, “Substituted cephalosporin sulfones as anti-inflammatory and antidegenerative agents” (Merck & Co., Inc., priority 1992, dated 1994).
